The results in this text go back to ChEMBL document CHEMBL1123890, “Combined analgesic/neuroleptic activity in N-butyrophenone prodine-like compounds” (J Med Chem, 1987).

Molecules are shown by their SMILES. pIC50: −log10 of the molar value. Calls of active or inactive are those of the source. No cut-off for these calls is given here. Where only a bound is given, the exact number is not on record here.

By ED50 is commonly meant the midpoint of the dose-response relation. As a reminder, the pIC50 is −log10 of the IC50, conventionally taken in molar units. A high value points to a small IC50. The IC50 is the concentration that gives 50% inhibition. Low values mean greater potency, high ones weaker potency.

The subject of test [1] is Mus musculus. Description: In vivo analgesic activity in mice after subcutaneous administration by hot plate assay method. The format is functional. The note with it: sc. In general terms: Hot-plate and tail-flick tests time the reaction to a heat stimulus.
The species entered for test [2] is Rattus norvegicus. Description: The dose required to reduce the number of apomorphine induced rotation by 50% in rats with monolateral lesion of nigrostriatal tracts. The format is functional. The settings on record: Nigrostriatal tract.
In test [3] the target is D(2) dopamine receptor (Rattus norvegicus, UniProt P61169). Description: Ability to inhibit the specific binding of [3H]- spiroperidol to Dopamine receptor D2 in rat striatal membrane preparation by 50%. The format is cell membranes, Striatum.
Test [4] has as its target D(1A) dopamine receptor (Rattus norvegicus, UniProt P18901). Description: Inhibitory concentration against rat striatal dopamine (D1) sensitive adenylate cyclase activity. The format is functional.
Test [5] addresses Opioid receptor (Rattus norvegicus, UniProt P33533+P34975+P33535). Description: Ability to inhibit the specific binding of [3H]- dihydromorphine to opiate receptors in rat brain membrane preparation by 50%. The format is cell membranes.
For test [6], the system named is Mus musculus. Description: In vivo analgesic activity in mice after subcutaneous administration by hot plate assay method. The test is classed as functional. The note with it: sc.
Test [7] deals with Mus musculus. Description: In vivo analgesic activity in mice after subcutaneous administration by hot plate assay method; inactive at 25 mg. The test is classed as functional, organism-based.

Chain of D(2) dopamine receptor (P61169 whole entry): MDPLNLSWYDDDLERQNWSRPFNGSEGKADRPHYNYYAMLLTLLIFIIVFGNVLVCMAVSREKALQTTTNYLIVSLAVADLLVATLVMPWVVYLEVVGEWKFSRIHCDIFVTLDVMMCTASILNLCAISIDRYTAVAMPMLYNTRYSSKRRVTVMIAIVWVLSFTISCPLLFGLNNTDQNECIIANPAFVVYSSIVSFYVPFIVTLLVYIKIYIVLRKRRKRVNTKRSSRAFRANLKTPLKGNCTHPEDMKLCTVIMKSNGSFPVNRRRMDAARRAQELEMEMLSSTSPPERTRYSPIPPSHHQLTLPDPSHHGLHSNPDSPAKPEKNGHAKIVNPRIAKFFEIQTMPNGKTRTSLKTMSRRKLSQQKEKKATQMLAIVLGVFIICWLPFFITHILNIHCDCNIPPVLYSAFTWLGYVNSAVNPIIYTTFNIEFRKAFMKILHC
Chain of D(1A) dopamine receptor (P18901 whole entry): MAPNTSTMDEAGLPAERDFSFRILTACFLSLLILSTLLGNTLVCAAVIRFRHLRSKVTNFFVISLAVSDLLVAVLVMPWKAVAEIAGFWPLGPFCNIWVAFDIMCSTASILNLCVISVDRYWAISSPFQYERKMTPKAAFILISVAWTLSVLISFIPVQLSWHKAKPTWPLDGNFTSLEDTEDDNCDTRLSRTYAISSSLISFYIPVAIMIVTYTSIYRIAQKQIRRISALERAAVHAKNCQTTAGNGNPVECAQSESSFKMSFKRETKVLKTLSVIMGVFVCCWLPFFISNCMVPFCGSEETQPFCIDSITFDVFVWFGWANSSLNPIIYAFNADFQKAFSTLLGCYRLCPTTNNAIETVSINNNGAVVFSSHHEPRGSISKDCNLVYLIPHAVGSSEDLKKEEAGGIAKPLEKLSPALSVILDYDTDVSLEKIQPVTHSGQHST

For the molecule `O=C(CCCN1CCC(O)(c2ccccc2)CC1)c1ccc(F)cc1`, the results for the ED50 in test [1] and in test [2] were more than 5 mg/kg and 0.35 mg/kg, respectively. The pIC50 was 7.33 in test [3] and 5.55 in test [4]. This molecule also gave an IC50 in test [5] of 3215 nM.

The molecule `CN1CC[C@]23c4c5ccc(O)c4O[C@H]2[C@@H](O)C=C[C@H]3[C@H]1C5.Cl` [MORPHINE HYDROCHLORIDE] registered an ED50 in test [1] of 1.2 mg/kg.

Turning to `CCC(=O)OC1(c2ccccc2)CCN(CCCC(=O)c2ccc(F)cc2)C[C@@H]1C` (some centres not stated), the ED50 in test [6] stood at 0.23 mg/kg; in test [2], 0.22 mg/kg. For the same molecule, the pIC50 in test [3] is 7.47; in test [4], 5.59. In test [5], this molecule gave an IC50 of 3.33 nM.

In the case of `O=C(CCCN1CCC(O)CC1)c1ccc(F)cc1`, it took a dose of 5.84 mg/kg to reach the 50% effect level in test [2] (ED50). The pIC50 in test [3] is less than 5.30. The ED50 result in test [7] is “inactive”. Also, the IC50 in test [5] is 5500 nM.

Turning to `C[C@H]1CN(CCCC(=O)c2ccc(F)cc2)CCC1(O)c1ccccc1` (some centres not stated), the ED50 in test [1] is more than 5 mg/kg; in test [2], 1.54 mg/kg. For the same molecule, the pIC50 in test [4] is 5.78. The molecule also showed an IC50 in test [5] of more than 10000 nM.

Consider `CCC(=O)OC1CCN(CCCC(=O)c2ccc(F)cc2)CC1`, for which the ED50 in test [2] is 4.82 mg/kg. For the same molecule, the pIC50 in test [3] is less than 4.30. In test [5], this molecule gave an IC50 of 598 nM.

For the molecule `O=C(CCCN1CCC(c2ccccc2)CC1)c1ccc(F)cc1`, the ED50 in test [1] stood at 5 mg/kg; in test [2] it was 1.31 mg/kg. For the same molecule, the pIC50 in test [3] was 7.16; in test [4], 5.12. The molecule also showed an IC50 in test [5] of more than 10000 nM.

Turning to `C[C@@H]1CN(CCCC(=O)c2ccc(F)cc2)CCC1(O)c1ccccc1` (some centres not stated), the ED50 is more than 5 mg/kg in test [1] and 0.93 mg/kg in test [2]. The molecule further showed a pIC50 in test [4] of 5.58. This molecule also had an IC50 in test [5] of more than 10000 nM.

Turning to `CN1CCc2cccc3c2[C@H]1Cc1ccc(O)c(O)c1-3` [APOMORPHINE], the half-maximal inhibitory concentration (IC50) in test [5] turned out to be 302 nM.

In the case of `CCC(=O)OC1(c2ccccc2)CCN(CCCC(=O)c2ccc(F)cc2)C[C@H]1C` (some centres not stated), the results for the ED50 in test [6] and in test [2] were 0.65 mg/kg and 1.59 mg/kg, respectively. Besides, the results for the pIC50 in test [3] and in test [4] were 7.33 and 5.49, respectively. The molecule further had an IC50 in test [5] of 8.67 nM.

As for `CCC(=O)OC1(c2ccccc2)CCN(CCCC(=O)c2ccc(F)cc2)CC1`, the ED50 in test [6] is 0.32 mg/kg; in test [2], 0.2 mg/kg. In addition, the results for the pIC50 in test [3] and in test [4] were 7.54 and 5.62, respectively. The molecule also yielded an IC50 in test [5] of 2.96 nM.
